Assay results from article PMC4415909 (Journal of Medicinal Chemistry, 2015).
Where a name gives a salt, the structure may show the parent alone.

What was measured:
[1] = system: major CYP-P450s (1A2, 2C9, 2D6, 3A4, 2C8, 2C19); experiment: Multipoint cocktail DDI IC50 assay, major CYP-P450s; format: in vitro ADME; conditions: human, pooled human liver microsomes (HL-MIX-102), pH 7.4
[2] = target: BACE1 (Homo sapiens, UniProt P56817); format: biochemical
[3] = system: retinal pigment epithelium (RPE) layer of the eye; conditions: cited from earlier work
[4] = Human hepatocyte clearance; format: in vitro ADME; conditions: hepatocytes
[5] = cited from earlier work
[6] = target: hERG (Homo sapiens, UniProt Q12809); experiment: hERG patch clamp assay in hERG-expressing CHO cells; format: cell-based; conditions: pH 7.35
Chain of hERG (Q12809 whole entry): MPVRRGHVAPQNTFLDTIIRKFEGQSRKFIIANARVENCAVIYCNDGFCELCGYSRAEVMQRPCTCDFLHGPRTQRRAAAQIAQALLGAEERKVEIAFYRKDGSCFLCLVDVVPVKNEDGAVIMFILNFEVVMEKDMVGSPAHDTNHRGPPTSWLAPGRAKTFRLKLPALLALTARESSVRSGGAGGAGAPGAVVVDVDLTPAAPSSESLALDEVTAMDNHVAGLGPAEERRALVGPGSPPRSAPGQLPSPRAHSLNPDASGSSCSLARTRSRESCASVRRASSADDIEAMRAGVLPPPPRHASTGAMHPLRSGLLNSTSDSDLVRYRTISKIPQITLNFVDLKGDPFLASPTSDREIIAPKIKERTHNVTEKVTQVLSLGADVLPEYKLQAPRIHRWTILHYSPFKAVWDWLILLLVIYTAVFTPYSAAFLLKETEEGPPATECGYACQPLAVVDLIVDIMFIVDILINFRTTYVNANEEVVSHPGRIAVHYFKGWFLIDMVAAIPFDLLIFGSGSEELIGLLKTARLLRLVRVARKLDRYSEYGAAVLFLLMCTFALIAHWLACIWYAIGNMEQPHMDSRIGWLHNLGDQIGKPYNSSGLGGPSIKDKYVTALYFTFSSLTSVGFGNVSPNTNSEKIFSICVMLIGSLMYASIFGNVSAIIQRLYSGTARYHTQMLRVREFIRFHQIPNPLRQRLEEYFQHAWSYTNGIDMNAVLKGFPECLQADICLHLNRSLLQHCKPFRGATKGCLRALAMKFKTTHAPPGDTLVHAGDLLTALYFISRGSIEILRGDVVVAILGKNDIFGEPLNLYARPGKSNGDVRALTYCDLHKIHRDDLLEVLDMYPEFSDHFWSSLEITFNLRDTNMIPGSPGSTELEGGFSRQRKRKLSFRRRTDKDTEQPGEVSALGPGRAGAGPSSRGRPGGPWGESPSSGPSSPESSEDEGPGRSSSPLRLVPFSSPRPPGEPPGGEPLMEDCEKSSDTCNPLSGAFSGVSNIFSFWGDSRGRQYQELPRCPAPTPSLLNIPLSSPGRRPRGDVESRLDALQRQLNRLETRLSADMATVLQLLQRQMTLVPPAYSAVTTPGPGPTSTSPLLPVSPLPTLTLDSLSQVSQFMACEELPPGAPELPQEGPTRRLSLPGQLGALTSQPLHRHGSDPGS

Chain of BACE1 (P56817 46-457 limits assumed): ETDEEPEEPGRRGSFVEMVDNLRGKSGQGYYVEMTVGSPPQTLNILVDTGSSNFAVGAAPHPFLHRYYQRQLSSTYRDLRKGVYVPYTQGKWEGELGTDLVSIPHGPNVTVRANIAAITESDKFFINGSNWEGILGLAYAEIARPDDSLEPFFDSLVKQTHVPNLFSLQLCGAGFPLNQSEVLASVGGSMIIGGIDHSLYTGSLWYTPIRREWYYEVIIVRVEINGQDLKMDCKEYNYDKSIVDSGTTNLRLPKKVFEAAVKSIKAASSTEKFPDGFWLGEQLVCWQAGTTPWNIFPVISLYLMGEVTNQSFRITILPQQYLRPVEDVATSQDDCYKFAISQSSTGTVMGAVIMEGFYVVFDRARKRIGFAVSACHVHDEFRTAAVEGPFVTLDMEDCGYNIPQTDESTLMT

Cc1coc([C@H]2C[C@H]3[C@@H](CF)SC(N)=N[C@@]3(c3ccc(F)cc3F)CO2)n1 [Compound 12, (4S,4aR,6R,8aS)-8a-(2,4-Difluorophenyl)-4-(fluoromethyl)-6-(4-methyloxazol-2-yl)-4,4a,5,6,8,8a-hexahydropyrano[3,4-d][1,3]thiazin-2-amine]
IC50 [1]: > 30 µM

NC1=N[C@@]2(c3ccc(F)cc3F)CO[C@@H](c3ncco3)C[C@H]2CS1 [Compound 2, (4aR,6R,8aS)-8a-(2,4-Difluorophenyl)-6-(oxazol-2-yl)-4,4a,5,6,8,8a-hexahydropyrano[3,4-d][1,3]thiazin-2-amine]
improvement of BACE1 potency over 1 [2]: ~2 fold | LipE ([2]; LipE = BACE1 CFA pIC50 – log D): 5.2

C[C@@]1(c2cc(-c3cncnc3)c(F)cc2F)CCSC(N)=N1 [LY2811376]
finding in rat safety studies [3]: accumulation of autofluorescent material and degeneration of the retinal pigment epithelium (RPE) layer of the eye

Cn1cc([C@H]2C[C@H]3[C@@H](CF)SC(N)=N[C@@]3(c3ccc(F)cc3F)CO2)cn1 [Compound 14, (4S,4aR,6R,8aS)-8a-(2,4-Difluorophenyl)-4-(fluoromethyl)-6-(1-methyl-1H-pyrazol-4-yl)-4,4a,5,6,8,8a-hexahydropyrano[3,4-d][1,3]thiazin-2-amine, Hydrochloride Salt]
IC50 [1]: > 30 µM

Cn1cc([C@H]2C[C@H]3CSC(N)=N[C@@]3(c3ccc(F)cc3F)CO2)cn1 [Compound 5, (4aR,6R,8aS)-8a-(2,4-Difluorophenyl)-6-(1-methyl-1H-pyrazol-4-yl)-4,4a,5,6,8,8a-hexahydropyrano[3,4-d][1,3]thiazin-2-amine]
improvement of BACE1 potency over compound 2 [2]: approximately 10 fold | hepatocyte CLint [4]: < 6 µL/min/1e6 cells

Cc1coc([C@H]2C[C@H]3CSC(N)=N[C@@]3(c3ccc(F)cc3F)CO2)n1 [Compound 3, (4aR,6R,8aS)-8a-(2,4-Difluorophenyl)-6-(4-methyloxazol-2-yl)-4,4a,5,6,8,8a-hexahydropyrano[3,4-d][1,3]thiazin-2-amine]
improvement of BACE1 potency over compound 2 [2]: approximately 10 fold

NC1=N[C@@]2(c3cc(NC(=O)c4ccc(F)cn4)ccc3F)COC[C@H]2CS1 [LY2886721]
finding that terminated phase II study [5]: abnormal liver biochemical tests

Cc1cc([C@H]2C[C@H]3CSC(N)=N[C@@]3(c3ccc(F)cc3F)CO2)on1 [Compound 4, (4aR, 6R, 8aS)-8a-(2,4-Difluorophenyl)-6-(3-methyl-1,2-oxazo1-5-yl)-4,4-a,5,6,8,8a-hexahydropyrano [3,4-][1,3]thiazin-2-amine]
improvement of BACE1 potency over compound 2 [2]: approximately 10 fold

Cc1coc([C@H]2C[C@H]3[C@@H](C)SC(N)=N[C@@]3(c3ccc(F)cc3F)CO2)n1 [Compound 9, (4R,4aR,6R,8aS)-8a-(2,4-Difluorophenyl)-4-methyl-6-(4-methyloxazol-2-yl)-4,4a,5,6,8,8a-hexahydropyrano[3,4-d][1,3]thiazin-2-amine]
IC50 [1]: > 30 µM

CC1(C#Cc2cnc3c(c2)[C@]2(COC(N)=N2)c2cc(-c4cccnc4F)ccc2O3)COC1 [AMG-8718]
finding in rat safety studies [3]: accumulation of autofluorescent material and degeneration of the retinal pigment epithelium (RPE) layer of the eye

Cc1cc([C@H]2C[C@H]3[C@@H](CF)SC(N)=N[C@@]3(c3ccc(F)cc3F)CO2)on1 [Compound 13, (4S,4aR,6R,8aS)-8a-(2,4-Difluorophenyl)-4-(fluoromethyl)-6-(3-methyl-1,2-oxazol-5-yl)-4,4a,5,6,8,8a-hexahydropyrano[3,4-d][1,3]thiazin-2-amine]
improvement of hERG margin compared to isoxazole 10 [6]: greater than 7 fold | IC50 [1]: > 30 µM
